Data taken from patent US11040035B2, “3-oxo-2,6-diphenyl-2,3-dihydropyridazine-4-carboxamides” (BAYER PHARMA AKTIENGESELLSCHAFT, priority 2016, dated 2021).

Tests used:
[1] = target: T1, AHR (Homo sapiens, UniProt P35869); assay: In vitro assay 2: agonism in human cell line (transactivation assay)
T1 sequence (P35869 11-848): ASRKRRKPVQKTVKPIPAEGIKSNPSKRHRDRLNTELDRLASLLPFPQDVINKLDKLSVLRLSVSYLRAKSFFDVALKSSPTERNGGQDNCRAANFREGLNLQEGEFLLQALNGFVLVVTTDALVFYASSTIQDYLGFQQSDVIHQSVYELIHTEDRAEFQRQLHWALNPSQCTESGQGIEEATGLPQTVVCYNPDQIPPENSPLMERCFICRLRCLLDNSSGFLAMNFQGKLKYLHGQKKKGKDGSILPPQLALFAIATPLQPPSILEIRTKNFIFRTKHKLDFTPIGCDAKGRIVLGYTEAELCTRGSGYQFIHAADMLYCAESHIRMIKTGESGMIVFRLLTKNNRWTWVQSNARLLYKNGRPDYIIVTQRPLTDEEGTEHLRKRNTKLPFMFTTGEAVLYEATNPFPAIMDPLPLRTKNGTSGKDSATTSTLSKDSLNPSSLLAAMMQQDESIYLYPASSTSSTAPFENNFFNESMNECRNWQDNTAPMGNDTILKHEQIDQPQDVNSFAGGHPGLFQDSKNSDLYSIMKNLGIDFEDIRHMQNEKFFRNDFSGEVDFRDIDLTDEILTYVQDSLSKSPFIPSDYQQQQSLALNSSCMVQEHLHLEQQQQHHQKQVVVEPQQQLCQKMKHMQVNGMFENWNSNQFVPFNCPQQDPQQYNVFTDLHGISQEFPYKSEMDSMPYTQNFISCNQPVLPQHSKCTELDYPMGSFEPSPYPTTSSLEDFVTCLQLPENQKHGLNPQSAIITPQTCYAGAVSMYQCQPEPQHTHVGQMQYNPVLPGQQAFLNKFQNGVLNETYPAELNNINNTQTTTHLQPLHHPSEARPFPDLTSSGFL

[2] = target: T1, AHR; assay: In vitro assay 1: antagonism in human cell line (transactivation assay, kynurenic acid prestimulated)
[3] = read-out: Assay 2: AHR-luc Hum Agonism IC50, no kynurenic acid, 20 hours, firefly luciferase
[4] = Assay 2: AHR-luc Hum Agonism IC50 [M], no kynurenic acid, 20 hours, firefly luciferase
[5] = Assay 1: AHR-luc Hum Antagonism IC50 [M], 150 μM kynurenic acid, 20 hours, firefly luciferase

Molecule | IC50 [1, 4] [M] | IC50 [2, 5] [M] | also measured
2-(3-Fluorophenyl)-N-{(2-hydroxy-1-[tetrahydrofuran-3-yl]ethyl}-6-(4-methoxyphenyl)-3-oxo-2,3-dihydropyridazine-4-carboxamide [Example 158] |  |  | IC50 [1, 3]: > 2e-05 M; IC50 ([2]; read-out: Assay 1: AHR-luc Hum Antagonism IC50, 150 μM kynurenic acid, 20 hours, firefly luciferase): 2.75e-07 M
CC(NC(=O)c1cc(-c2ccc(Cl)cc2)nn(-c2cccc(F)c2)c1=O)C(O)C(F)(F)F (mixture of isomers) [Example 217, Isomeric mixture no. 1 of 6-(4-chlorophenyl)-2-(3-fluorophenyl)-3-oxo-N-(4,4,4-trifluoro-3-hydroxybutan-2-yl)-2,3-dihydropyridazine-4-carboxamide] | > 2e-05 |  | 
O=C(NCC(O)C1CC1)c1cc(-c2ccc(Cl)cc2)nn(-c2cccc(F)c2)c1=O (racemic) [Example 190, 6-(4-Chlorophenyl)-N-[(2RS)-2-cyclopropyl-2-hydroxyethyl]-2-(3-fluorophenyl)-3-oxo-2,3-dihydropyridazine-4-carboxamide] | > 2e-05 | 2.77e-07 | 
O=C(NC(CO)C1CC1)c1cc(-c2ccc(Cl)cc2)nn(-c2cccc(F)c2)c1=O (racemic) [Example 193, 6-(4-Chlorophenyl)-N-[(1RS)-1-cyclopropyl-2-hydroxyethyl]-2-(3-fluorophenyl)-3-oxo-2,3-dihydropyridazine-4-carboxamide] | > 2e-05 | 2.52e-08 | 
CC(CO)CNC(=O)c1cc(-c2ccc(Cl)cc2)nn(-c2cccc(F)c2)c1=O (racemic) [Example 200, 6-(4-Chlorophenyl)-2-(3-fluorophenyl)-N-[(2RS)-3-hydroxy-2-methylpropyl]-3-oxo-2,3-dihydropyridazine-4-carboxamide] | > 2e-05 | 7.5e-08 | 
CC(O)CCNC(=O)c1cc(-c2ccc(Cl)cc2)nn(-c2cccc(F)c2)c1=O (racemic) [Example 203, 6-(4-Chlorophenyl)-2-(3-fluorophenyl)-N-[(3RS)-3-hydroxybutyl]-3-oxo-2,3-dihydropyridazine-4-carboxamide] | > 2e-05 | 2.13e-07 | 
CC(CCO)NC(=O)c1cc(-c2ccc(Cl)cc2)nn(-c2cccc(F)c2)c1=O (racemic) [Example 206, 6-(4-Chlorophenyl)-2-(3-fluorophenyl)-N-[(2RS)-4-hydroxybutan-2-yl]-3-oxo-2,3-dihydropyridazine-4-carboxamide] | > 2e-05 | 6.25e-08 | 
CC(NC(=O)c1cc(-c2ccc(Cl)cc2)nn(-c2cccc(F)c2)c1=O)C(O)C(F)(F)F (racemic) [Example 216, 6-(4-Chlorophenyl)-2-(3-fluorophenyl)-3-oxo-N-[(2RS,3RS)-4,4,4-trifluoro-3-hydroxybutan-2-yl]-2,3-dihydropyridazine-4-carboxamide and 6-(4-Chlorophenyl)-2-(3-fluorophenyl)-3-oxo-N-[(2RS,3SR)-4,4,4-trifluoro-3-hydroxybutan-2-yl]-2,3-dihydropyridazine-4-carboxamide] | > 2e-05 | 1.16e-07 | 
CC(O)C(NC(=O)c1cc(-c2ccc(C(F)(F)F)cc2)nn(-c2cccc(F)c2)c1=O)C(F)(F)F (racemic) [Example 260, 2-(3-Fluorophenyl)-3-oxo-N-[(2RS,3RS)-1,1,1-trifluoro-3-hydroxybutan-2-yl]-6-[4-(trifluoromethyl)phenyl]-2,3-dihydropyridazine-4-carboxamide or 2-(3-fluorophenyl)-3-oxo-N-[(2SR,3RS)-1,1,1-trifluoro-3-hydroxybutan-2-yl]-6-[4-(trifluoromethyl)phenyl]-2,3-dihydropyridazine-4-carboxamide] | > 2e-05 |  | 
O=C(NC(CO)C(F)(F)F)c1cc(-c2ccc(C(F)(F)F)cc2)nn(-c2cccc(F)c2)c1=O (racemic) [Example 266, 2-(3-Fluorophenyl)-3-oxo-N-[(2RS)-1,1,1-trifluoro-3-hydroxypropan-2-yl]-6-[4-(trifluoromethyl)phenyl]-2,3-dihydropyridazine-4-carboxamide] | 7.84e-07 |  | 
CC(C)(O)C(NC(=O)c1cc(-c2ccc(C(F)(F)F)cc2)nn(-c2cccc(F)c2)c1=O)C(F)(F)F (single isomer, unassigned; (+)) [Example 395, (+)-2-(3-fluorophenyl)-3-oxo-N-(1,1,1-trifluoro-3-hydroxy-3-methylbutan-2-yl)-6-[4-(trifluoromethyl)phenyl]-2,3-dihydropyridazine-4-carboxamide] |  |  | IC50 [1, 3]: > 2e-05 M
Cc1ccc(-c2cc(C(=O)NC(CO)C(C)C)c(=O)n(-c3cccc(F)c3)n2)cc1C (stereo not drawn) [Example 82, 6-(3,4-dimethylphenyl)-2-(3-fluorophenyl)-N-(1-hydroxy-3-methylbutan-2-yl)-3-oxo-2,3-dihydropyridazine-4-carboxamide] |  | 1.03e-07 | 
Cc1ccc(-c2cc(C(=O)N[C@@H](CO)C(C)C)c(=O)n(-c3cccc(F)c3)n2)cc1C [Example 84, 6-(3,4-dimethylphenyl)-2-(3-fluorophenyl)-N-[(2R)-1-hydroxy-3-methylbutan-2-yl]-3oxo-2,3-dihydropyridazine-4-carboxamide] |  | 3.66e-06 | 
CCC(CO)NC(=O)c1cc(-c2ccc(C)c(C)c2)nn(-c2cccc(F)c2)c1=O (stereo not drawn) [Example 85, 6-(3,4-dimethylphenyl)-2-(3-fluorophenyl)-N-(1-hydroxybutan-2-yl)-3-oxo-2,3-dihydropyridazine-4-carboxamide] |  | 8.61e-08 | 
CC[C@H](CO)NC(=O)c1cc(-c2ccc(C)c(C)c2)nn(-c2cccc(F)c2)c1=O [Example 87, 6-(3,4-dimethylphenyl)-2-(3-fluorophenyl)-N-[(2R)-1-hydroxybutan-2-yl]-3-oxo-2,3-dihydropyridazine-4-carboxamide] |  | 7.26e-07 | 
Cc1ccc(-c2cc(C(=O)NC(C)CO)c(=O)n(-c3cccc(F)c3)n2)cc1C (stereo not drawn) [Example 88, 6-(3,4-dimethylphenyl)-2-(3-fluorophenyl)-N-(1-hydroxypropan-2-yl)-3-oxo-2,3-dihydropyridazine-4-carboxamide] |  | 1.46e-07 | 
Cc1ccc(-c2cc(C(=O)N[C@H](C)CO)c(=O)n(-c3cccc(F)c3)n2)cc1C [Example 90, 6-(3,4-dimethylphenyl)-2-(3-fluorophenyl)-N-[(2R)-1-hydroxypropan-2-yl]-3-oxo-2,3-dihydropyridazine-4-carboxamide] |  | 6.75e-07 | 
O=C(N[C@@H]1CCC[C@@H]1O)c1cc(-c2ccc(Cl)cc2)nn(-c2cccc(F)c2)c1=O [Example 133, 6-(4-Chlorophenyl)-2-(3-fluorophenyl)-N-[(1R,2S)-2-hydroxycyclopentyl]-3-oxo-2,3-dihydropyridazine-4-carboxamide] | > 2e-05 |  | 
CC(C)[C@@H](CO)NC(=O)c1cc(-c2ccc(C(F)(F)F)cc2)nn(-c2cccc(F)c2)c1=O [Example 239, 2-(3-Fluorophenyl)-N-[(2S)-1-hydroxy-3-methylbutan-2-yl]-3-oxo-6-[4-(trifluoromethyl)phenyl]-2,3-dihydropyridazine-4-carboxamide] | > 2e-05 |  | 
CC(C)[C@H](CO)NC(=O)c1cc(-c2ccc(C(F)(F)F)cc2)nn(-c2cccc(F)c2)c1=O [Example 240, 2-(3-Fluorophenyl)-N-[(2R)-1-hydroxy-3-methylbutan-2-yl]-3-oxo-6-[4-(trifluoromethyl)phenyl]-2,3-dihydropyridazine-4-carboxamide] | 6.56e-08 |  | 
